These results are taken from PubChem BioAssay (NCI).

The assay relates to P388/ADR leukemia. Kind of assay: NCI tumour cell line growth inhibition, 48 h.

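1) Cells in 96-well plates. 2) Compound, 48 h, 5 concentrations. 3) Linear interpolation between surrounding doses. 4) Unreached endpoint = highest concentration. TGI denotes the concentration required for complete inhibition of growth.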

In turn, `CCCCS(=N)(=O)CC[C@H](N)C(=O)O` (stereo partly specified) came in with a TGI of more than 5 mM.
